The results in this text go back to EP3822285A1, “VARIANT NISIN PEPTIDES” (University College Cork-National University of Ireland, Cork, priority 2019, dated 2021).

Common to all, as to type: cell-based
For assay [1], the system named is T. aquaticus. The assay can be described thus: Minimum inhibitory concentration assay (Thermus). To be noted: pure peptide, mean of triplicate assays. The procedure:
(§1) Minimum inhibitory concentration (MIC) determinations for gram negative Thermus strains were carried out in triplicate in round bottom microtitre plates (Corning). 96 well microtitre plates were pre-treated with bovine serum albumin (BSA) prior to addition of the peptides. Briefly, to each well of the microtire plates 200 µl of d.H2O (filtered with 0.2 µm filter) containing 1% (w/w) BSA was added and incubated at 37°C for 30 mins. The wells were washed with 200 µl of IX phosphate buffered saline (PBS) for 2 times after removing 1% BSA d.H2O. 100 µl of growth media, i.e., Castenholz, was added to each well. […] Target strains were grown overnight as per conditions mention above, 0.5 ml of overnight was subcultured in to 10 mls of fresh Castenholz medium and allowed to grow to an OD600 of ∼0.5. 20µl of this subculture was added to 980µl of media, 150µl of this dilution added to 14.85 ml of growth media. 100µl of this dilution added to each well resulting in a final inoculum of ∼10^5 cfu/ml in 200µl. The plates were incubated at 55° C for 3 days and the MIC was determined as the lowest concentration at which no growth was visible.
(§2) The bioactivity of cell-free supernatant can be influenced by altered diffusion rates, solubility, production or specific activity. To determine to what extent, if any, the bioactivity noted above is due to increased specific activity, nisin A (control) and the derivatives were purified and their molecular weights confirmed by MALDI TOF mass spectrometry (Table: 6) (Figure: 4). These peptides were used to perform minimum inhibitory concentration assays against six Thermus strains, i.e., T. thermophilus HB27, T. scotoductus SE-1, T. rehai, T. oshimai, T. aquaticus and T. brockianus.

For assay [2], the system named is T. oshimai. Put plainly: Minimum inhibitory concentration assay (Thermus). The conditions noted are these: pure peptide, mean of triplicate assays. The method, then: as §1, §2
The subject of assay [3] is T. thermophilus HB27. The assay can be described thus: Minimum inhibitory concentration assay (Thermus). To be noted: pure peptide, mean of triplicate assays. The method, then: as §1, §2
The test system of assay [4] is T. brockianus. The assay can be described thus: Minimum inhibitory concentration assay (Thermus). To be noted: pure peptide, mean of triplicate assays. The method, then:
as §1, §2

For assay [5], the system named is T. scotoductus SE-1. Put plainly: Minimum inhibitory concentration assay (Thermus). The conditions noted are these: for MIC: pure peptide, mean of triplicate assays. The method, then:
as §1, §2

For assay [6], the system named is T. rehai. The assay can be described thus: Minimum inhibitory concentration assay (Thermus). The conditions noted are these: pure peptide, mean of triplicate assays. The method, then: as §1, §2
For assay [7], the system named is Thermus scotoductus SE-1. Put plainly: Agar diffusion assay with cell free supernatant of producing strains. The conditions noted are these: zone diameter relative to Nisin A wild type (100). The method, then:
(§3) Agar diffusion assays were carried out in triplicate using nisin producing and indicator (T. thermophilus HB27 and T. scotoductus Se-1) strains. Both the producer and indicator strains were cultured as per conditions described above. One ml of overnight culture of indicators were added to 50ml of molten Castenholz agar, briefly swirled and poured. Wells were made using sterile glass pipette. To generate cell free supernatant from nisin producing strains, 10 mls of overnight cultures of the strains were centrifuged at 950g for 20 mins. The cell free supernatant was transferred to a sterile tube. 50 µl of cell free supernatant was added to wells described above. Plates were incubated at 55°C for 3 days and the zone of clearance measured.
(§4) The cell free supernatant of nisin A and nisin variant producing L. lactis was used to determine the bioactivity of these lantibiotics against T. thermophilus HB27 and T. scotoductus SE-1 using agar diffusion assays, with the zone of clearance representing the bioactivity of the producing strain (i.e., representing a combination of the amount of the peptide produced and the specific activity of that peptide). […] Among the variants tested were those with altered N-terminal domains. The N-terminal domain of nisin is important for binding with the pyrophosphate moiety of lipid II to mediate pore formation in the cell membrane. Lysine (K) at position 12, which serves as a small flexible region between ring B and C, and is one of among the 5 positively charged residues (K12, K22, K34, H27, […]) of nisin A that contributes to its cationic nature and its attraction to the cell envelope.
For orientation: A growth-free zone around the sample is the usual read-out of agar diffusion tests.

Assay [8] has as its system Thermus thermophilus HB27. The assay is described as above. To be noted: zone diameter relative to Nisin A wild type (100). The method, then:
as §3, §4

≈ marks a conversion by molar mass, not a printed value. Where “and” joins values, the source holds several entries; their conditions need not be identical. Equal entries are not always repeated. Marks after values point to notes of the source that are not given here.

As a reminder, the MIC is the lowest concentration that inhibits growth of the organism. Read a low MIC as inhibition by little substance. Regarding `C=C(NC(=O)[C@@H](NC(=O)[C@H](Cc1c[nH]cn1)NC(=O)[C@@H](NC(=O)[C@H](CO)NC(=O)[C@@H]1CS[C@@H](C)[C@H]2NC(=O)[C@H](C)NC(=O)[C@H](NC(=O)[C@H](CCCCN)NC(=O)[C@H](CCSC)NC(=O)[C@H](CC(N)=O)NC(=O)[C@@H]3CS[C@@H](C)[C@@H](NC(=O)[C@H](CCSC)NC(=O)[C@@H]4CS[C@@H](C)[C@@H](NC(=O)[C@@H]5CSC[C@@H](NC(=O)/C(=C/C)NC(=O)[C@@H](N)[C@@H](C)CC)C(=O)N[C@@H]([C@@H](C)CC)C(=O)NC(=C)C(=O)N[C@@H](CC(C)C)C(=O)N5)C(=O)N5CCC[C@H]5C(=O)NCC(=O)N4)C(=O)NCC(=O)N[C@@H](C)C(=O)N[C@@H](CC(C)C)C(=O)N[C@@H](CCSC)C(=O)NCC(=O)N3)[C@H](C)SC[C@H](NC2=O)C(=O)N[C@@H](Cc2c[nH]cn2)C(=O)N1)[C@@H](C)CC)C(C)C)C(=O)N[C@@H](CCCCN)C(=O)O` [K12M], the MIC in assay [1] is 0.0156 µM (≈ 0.0524 µg/mL); in assay [2] it was 0.0156 µM (≈ 0.0524 µg/mL); in assay [3] it was 0.0156 µM (≈ 0.0524 µg/mL); in assay [4] it was 0.0625 µM (≈ 0.21 µg/mL); in assay [5], 0.125 µM (≈ 0.42 µg/mL); in assay [6], 0.0078 µM (≈ 0.0262 µg/mL). In addition, the “% of wild type” value in assay [7] was found to be 118%. The “% difference” value in assay [8] was found to be 118%.
`C=C(NC(=O)[C@@H](NC(=O)[C@H](Cc1c[nH]cn1)NC(=O)[C@@H](NC(=O)[C@H](CO)NC(=O)[C@@H]1CS[C@@H](C)[C@H]2NC(=O)[C@H](C)NC(=O)[C@H](NC(=O)[C@H](CCCCN)NC(=O)[C@H](CCSC)NC(=O)[C@H](CC(N)=O)NC(=O)[C@@H]3CS[C@@H](C)[C@@H](NC(=O)[C@@H](NC(=O)[C@@H]4CS[C@@H](C)[C@@H](NC(=O)[C@@H]5CSC[C@@H](NC(=O)/C(=C/C)NC(=O)[C@@H](N)[C@@H](C)CC)C(=O)N[C@@H]([C@@H](C)CC)C(=O)NC(=C)C(=O)N[C@@H](CC(C)C)C(=O)N5)C(=O)N5CCC[C@H]5C(=O)NCC(=O)N4)[C@@H](C)O)C(=O)NCC(=O)N[C@@H](C)C(=O)N[C@@H](CC(C)C)C(=O)N[C@@H](CCSC)C(=O)NCC(=O)N3)[C@H](C)SC[C@H](NC2=O)C(=O)N[C@@H](Cc2c[nH]cn2)C(=O)N1)[C@@H](C)CC)C(C)C)C(=O)N[C@@H](CCCCN)C(=O)O` [K12T]: the MIC in assay [1] worked out at 0.0312 µM (≈ 0.104 µg/mL); in assay [2] it was 0.0312 µM (≈ 0.104 µg/mL); in assay [3] it was 0.0156 µM (≈ 0.0519 µg/mL); in assay [4], 0.0625 µM (≈ 0.208 µg/mL); in assay [5] it was 0.0625 µM (≈ 0.208 µg/mL); in assay [6], 0.0156 µM (≈ 0.0519 µg/mL). The “% of wild type” value in assay [7] is recorded as 140* (0.001) %. The “% difference” value in assay [8] is 148* (.001) %.
Regarding `C=C(NC(=O)[C@@H](NC(=O)[C@H](Cc1c[nH]cn1)NC(=O)[C@@H](NC(=O)[C@H](CO)NC(=O)[C@@H]1CS[C@@H](C)[C@H]2NC(=O)[C@H](C)NC(=O)[C@H](NC(=O)[C@H](CCCCN)NC(=O)[C@H](CCC(N)=O)NC(=O)[C@H](CC(N)=O)NC(=O)[C@@H]3CS[C@@H](C)[C@@H](NC(=O)[C@H](CCCCN)NC(=O)[C@@H]4CS[C@@H](C)[C@@H](NC(=O)[C@@H]5CSC[C@@H](NC(=O)/C(=C/C)NC(=O)[C@@H](N)[C@@H](C)CC)C(=O)N[C@@H]([C@@H](C)CC)C(=O)NC(=C)C(=O)N[C@@H](CC(C)C)C(=O)N5)C(=O)N5CCC[C@H]5C(=O)NCC(=O)N4)C(=O)NCC(=O)N[C@@H](C)C(=O)N[C@@H](CC(C)C)C(=O)N[C@@H](CCSC)C(=O)NCC(=O)N3)[C@H](C)SC[C@H](NC2=O)C(=O)N[C@@H](Cc2c[nH]cn2)C(=O)N1)[C@@H](C)CC)C(C)C)C(=O)N[C@@H](CCCCN)C(=O)O` [M21Q], the MIC in assay [1] is 26.1 µg/L and 0.0078 µM; in assay [2], 6.5 µg/L and 0.00195 µM; in assay [3], 0.0039 µM (≈ 0.0131 µg/mL); in assay [4], 0.0156 µM (≈ 0.0523 µg/mL); in assay [5] it was 0.0625 µM (≈ 0.209 µg/mL); in assay [6], 13 µg/L and 0.0039 µM. Moreover, the “% of wild type” value in assay [7] is reported as 124* (0.05) %. Also, the “% difference” value in assay [8] is 123%.
As for `C=C(NC(=O)[C@@H](NC(=O)[C@H](Cc1c[nH]cn1)NC(=O)[C@@H](NC(=O)[C@H](CO)NC(=O)[C@@H]1CS[C@@H](C)[C@H]2NC(=O)[C@H](C)NC(=O)[C@H](NC(=O)[C@H](CCCCN)NC(=O)[C@H](Cc3ccccc3)NC(=O)[C@H](CC(N)=O)NC(=O)[C@@H]3CS[C@@H](C)[C@@H](NC(=O)[C@H](CCCCN)NC(=O)[C@@H]4CS[C@@H](C)[C@@H](NC(=O)[C@@H]5CSC[C@@H](NC(=O)/C(=C/C)NC(=O)[C@@H](N)[C@@H](C)CC)C(=O)N[C@@H]([C@@H](C)CC)C(=O)NC(=C)C(=O)N[C@@H](CC(C)C)C(=O)N5)C(=O)N5CCC[C@H]5C(=O)NCC(=O)N4)C(=O)NCC(=O)N[C@@H](C)C(=O)N[C@@H](CC(C)C)C(=O)N[C@@H](CCSC)C(=O)NCC(=O)N3)[C@H](C)SC[C@H](NC2=O)C(=O)N[C@@H](Cc2c[nH]cn2)C(=O)N1)[C@@H](C)CC)C(C)C)C(=O)N[C@@H](CCCCN)C(=O)O` [M21F], the MIC in assay [1] is on record as 0.0039 µM (≈ 0.0131 µg/mL); in assay [2], 0.00195 µM (≈ 0.00657 µg/mL); in assay [3], 0.0039 µM (≈ 0.0131 µg/mL); in assay [4] it was 0.0078 µM (≈ 0.0263 µg/mL); in assay [5] it was 0.0312 µM (≈ 0.105 µg/mL); in assay [6], 0.000975 µM (≈ 0.00329 µg/mL). In addition, the “% of wild type” value in assay [7] was 106%. In addition, the “% difference” value in assay [8] worked out at 125%.
On to `C=C(NC(=O)[C@@H](NC(=O)[C@H](Cc1c[nH]cn1)NC(=O)[C@@H](NC(=O)[C@H](CO)NC(=O)[C@@H]1CS[C@@H](C)[C@H]2NC(=O)[C@H](C)NC(=O)[C@H](NC(=O)[C@H](CCCCN)NC(=O)[C@H](CCSC)NC(=O)[C@H](CC(N)=O)NC(=O)[C@@H]3CS[C@@H](C)[C@@H](NC(=O)[C@H](CO)NC(=O)[C@@H]4CS[C@@H](C)[C@@H](NC(=O)[C@@H]5CSC[C@@H](NC(=O)/C(=C/C)NC(=O)[C@@H](N)[C@@H](C)CC)C(=O)N[C@@H]([C@@H](C)CC)C(=O)NC(=C)C(=O)N[C@@H](CC(C)C)C(=O)N5)C(=O)N5CCC[C@H]5C(=O)NCC(=O)N4)C(=O)NCC(=O)N[C@@H](C)C(=O)N[C@@H](CC(C)C)C(=O)N[C@@H](CCSC)C(=O)NCC(=O)N3)[C@H](C)SC[C@H](NC2=O)C(=O)N[C@@H](Cc2c[nH]cn2)C(=O)N1)[C@@H](C)CC)C(C)C)C(=O)N[C@@H](CCCCN)C(=O)O` [K12S], for which the MIC was 0.0312 µM (≈ 0.103 µg/mL) in assay [1]; 0.0156 µM (≈ 0.0517 µg/mL) in assay [2]; 0.0312 µM (≈ 0.103 µg/mL) in assay [3]; 0.0312 µM (≈ 0.103 µg/mL) in assay [4]; 0.0312 µM (≈ 0.103 µg/mL) in assay [5]; 0.0156 µM (≈ 0.0517 µg/mL) in assay [6]. Further, the “fold better activity than nisin A” value in assay [5] was determined as 2 fold. The “% of wild type” value in assay [7] amounted to 123%. Besides, the “% difference” value in assay [8] came out at 125%.
